Experimental data published in PMC8286840, “Identifying SARS-CoV-2 antiviral compounds by screening for small molecule inhibitors of Nsp3 papain-like protease” (Biochemical Journal, 2021).
Where a name gives a salt, the structure may show the parent alone. Read-outs that look alike come from different tables or passages of the source.

Legend:
[1] = biological target: T1, SARS-CoV-2 PLpro (nsp3 1564–1878) (Severe acute respiratory syndrome coronavirus 2, UniProt P0DTD1); assay: biochemical; design: FRET-quenched peptide (Pro3) cleavage by PLpro, 10 min pre-incubation, slope over 20 min, normalised to no-compound control; details: read-out: % of control remaining
[2] = biological target: T1, SARS-CoV-2 PLpro (nsp3 1564–1878); assay: biochemical; design: FRET-quenched peptide (Pro3) cleavage by PLpro, 10 min pre-incubation, slope over 20 min, normalised to no-compound control; details: read-out: % of control remaining; remark: listed apart in the source

Q: `Cn1cc(C(=O)[C@@H]2CCc3[nH]cnc3C2)c2ccccc21` [Ramosetron (Hydrochloride)] was tested. Which remaining activity at 3.75 µM ([1]; Well no.=7339, high concentration screen) did it give?
A: 103%

Q: What about the remaining activity at 1.25 µM ([2]; Well no.=7339, low concentration screen) of the same compound?
A: 102%

Q: How did the remaining activity at 3.75 µM ([1]; Well no.=6609, high concentration screen) turn out when `CNC(=C[N+](=O)[O-])NCCSCc1ccc(CN(C)C)o1` [Ranitidine (hydrochloride)] was run?
A: 104%

Q: What about the remaining activity at 1.25 µM ([2]; Well no.=6609, low concentration screen) of the same compound?
A: 102%

Q: Which remaining activity at 3.75 µM ([1]; Well no.=1304, high concentration screen) does the source give for `CNC(=C[N+](=O)[O-])NCCSCc1ccc(CN(C)C)o1` [Ranitidine hydrochloride] here?
A: 101%

Q: What about the remaining activity at 1.25 µM ([2]; Well no.=1304, low concentration screen) of the same compound?
A: 101%

Q: How did the remaining activity at 3.75 µM ([1]; Well no.=1642, high concentration screen) turn out when `CNC(=C[N+](=O)[O-])NCCSCc1ccc(CN(C)C)o1` [Ranitidine.HCl] was run?
A: 105%

Q: And the remaining activity at 1.25 µM ([2]; Well no.=1642, low concentration screen)?
A: 105%

Q: With `COc1ccccc1OCC(O)CN1CCN(CC(=O)Nc2c(C)cccc2C)CC1` (stereo not drawn) [Ranolazine dihydrochloride] as the compound, how does the remaining activity at 3.75 µM ([1]; Well no.=1254, high concentration screen) read?
A: 106%

Q: What about the remaining activity at 1.25 µM ([2]; Well no.=1254, low concentration screen) of the same compound?
A: 108%

Q: Which results are given for `CO[C@H]1C[C@@H]2CC[C@@H](C)[C@@](O)(O2)C(=O)C(=O)N2CCCC[C@H]2C(=O)O[C@H]([C@H](C)C[C@@H]2CC[C@@H](O)[C@H](OC)C2)CC(=O)[C@H](C)/C=C(\C)[C@@H](O)[C@@H](OC)C(=O)[C@H](C)C[C@H](C)/C=C/C=C/C=C/1C` [Rapamycin]?
A: remaining activity at 3.75 µM ([1]; Well no.=1557, high concentration screen): 97.9%; remaining activity at 3.75 µM ([1]; Well no.=2555, high concentration screen): 91.9%; remaining activity at 3.75 µM ([1]; Well no.=3126, high concentration screen): 106%; remaining activity at 1.25 µM ([2]; Well no.=1557, low concentration screen): 99.1%; remaining activity at 1.25 µM ([2]; Well no.=2555, low concentration screen): 93.5%; remaining activity at 1.25 µM ([2]; Well no.=3126, low concentration screen): 102%

Q: For `COc1ccc2nc3n[nH]c(C)c3c(NCCOCCO)c2c1` [Ras/Rac Transformation Blocker, SCH 51344], which remaining activity at 3.75 µM ([1]; Well no.=2619, high concentration screen) is on record?
A: 101%

Q: What about the remaining activity at 1.25 µM ([2]; Well no.=2619, low concentration screen) of the same compound?
A: 96.5%

Q: `C#CCN[C@@H]1CCc2ccccc21` [Rasagiline mesylate] was tested. Which remaining activity at 3.75 µM ([1]; Well no.=4766, high concentration screen) did it give?
A: 97.6%

Q: What about the remaining activity at 1.25 µM ([2]; Well no.=4766, low concentration screen) of the same compound?
A: 98.4%

Q: Which results are given for `COC(=O)[C@H]1[C@H]2C[C@H]3c4[nH]c5ccccc5c4CCN3C[C@H]2CC[C@@H]1O` [Rauwolscine hydrochloride]?
A: remaining activity at 3.75 µM ([1]; Well no.=1400, high concentration screen): 99%; remaining activity at 1.25 µM ([2]; Well no.=1400, low concentration screen): 100%

Q: What does the source list for `COC(=O)[C@H]1[C@H]2C[C@H]3c4[nH]c5ccccc5c4CCN3C[C@H]2CC[C@@H]1O` [Rauwolscine]?
A: remaining activity at 3.75 µM ([1]; Well no.=3128, high concentration screen): 99.4%; remaining activity at 1.25 µM ([2]; Well no.=3128, low concentration screen): 99%

Q: Which results are given for `Nc1c(S(=O)(=O)O)cc(Nc2ccc(Nc3nc(Cl)nc(Nc4cccc(S(=O)(=O)O)c4)n3)c(S(=O)(=O)O)c2)c2c1C(=O)c1ccccc1C2=O` [Reactive Blue 2]?
A: remaining activity at 3.75 µM [1]: 101%; remaining activity at 1.25 µM [2]: 101%

Q: What does the source list for `O=C(NC(Cc1cc(=O)[nH]c2ccccc12)C(=O)O)c1ccc(Cl)cc1` (stereo not drawn) [Rebamipide]?
A: remaining activity at 3.75 µM ([1]; Well no.=2197, high concentration screen): 98.5%; remaining activity at 3.75 µM ([1]; Well no.=6992, high concentration screen): 98.9%; remaining activity at 1.25 µM ([2]; Well no.=2197, low concentration screen): 99.1%; remaining activity at 1.25 µM ([2]; Well no.=6992, low concentration screen): 95.1%

Q: What does the source list for `C=C1C[C@@]23CC[C@H]4[C@@](C)(CCC[C@@]4(C)C(=O)O[C@@H]4O[C@H](CO)[C@@H](O)[C@H](O)[C@H]4O)[C@@H]2CC[C@]1(O[C@@H]1O[C@H](C)[C@@H](O)[C@H](O)[C@@H]1O[C@@H]1O[C@H](CO)[C@@H](O)[C@H](O[C@@H]2O[C@H](CO)[C@@H](O)[C@H](O)[C@H]2O)[C@H]1O)C3` [Rebaudioside C]?
A: remaining activity at 3.75 µM ([1]; Well no.=8446, high concentration screen): 95.9%; remaining activity at 1.25 µM ([2]; Well no.=8446, low concentration screen): 96%

Q: Which results are given for `CNC(=O)c1cnn(-c2nc(N)c3ncn([C@@H]4O[C@H](CO)[C@@H](O)[C@H]4O)c3n2)c1` [Regadenoson]?
A: remaining activity at 3.75 µM ([1]; Well no.=6557, high concentration screen): 103%; remaining activity at 3.75 µM ([1]; Well no.=8367, high concentration screen): 95.1%; remaining activity at 1.25 µM ([2]; Well no.=6557, low concentration screen): 106%; remaining activity at 1.25 µM ([2]; Well no.=8367, low concentration screen): 96.6%

Q: Which remaining activity at 3.75 µM ([1]; Well no.=5380, high concentration screen) does the source give for `CC(Cc1ccccc1)(NC(=O)CN)c1ccccc1` (stereo not drawn) [Remacemide hydrochloride] here?
A: 94.8%

Q: And the remaining activity at 1.25 µM ([2]; Well no.=5380, low concentration screen)?
A: 99%

Q: With `CCN1CCC[C@H]1CNC(=O)c1c(OC)ccc(Br)c1OC` [Remoxipride] as the compound, how does the remaining activity at 3.75 µM ([1]; Well no.=1819, high concentration screen) read?
A: 99.4%

Q: And the remaining activity at 1.25 µM ([2]; Well no.=1819, low concentration screen)?
A: 100%

Q: Which results are given for `Cc1cccc(-c2[nH]ncc2-c2ccc3ncccc3n2)n1` [RepSox]?
A: remaining activity at 3.75 µM ([1]; Well no.=5490, high concentration screen): 95.5%; remaining activity at 1.25 µM ([2]; Well no.=5490, low concentration screen): 96.3%

Q: For `CCOc1cc(CC(=O)N[C@@H](CC(C)C)c2ccccc2N2CCCCC2)ccc1C(=O)O` [Repaglinide], which remaining activity at 3.75 µM ([1]; Well no.=4817, high concentration screen) is on record?
A: 95.8%

Q: And the remaining activity at 1.25 µM ([2]; Well no.=4817, low concentration screen)?
A: 101%

Q: What does the source list for `CC(C)Cc1ccc([C@@H](C)C(=O)NS(C)(=O)=O)cc1` [Reparixin (L-lysine salt)]?
A: remaining activity at 3.75 µM ([1]; Well no.=8059, high concentration screen): 99.6%; remaining activity at 3.75 µM ([1]; Well no.=8125, high concentration screen): 104%; remaining activity at 1.25 µM ([2]; Well no.=8059, low concentration screen): 100%; remaining activity at 1.25 µM ([2]; Well no.=8125, low concentration screen): 104%

Q: How did the remaining activity at 3.75 µM ([1]; Well no.=7277, high concentration screen) turn out when `CC(C)Cc1ccc([C@@H](C)C(=O)NS(C)(=O)=O)cc1` [Reparixin] was run?
A: 99.9%

Q: And the remaining activity at 3.75 µM ([1]; Well no.=8501, high concentration screen)?
A: 106%

Q: And the remaining activity at 1.25 µM ([2]; Well no.=7277, low concentration screen)?
A: 99.5%

Q: And the remaining activity at 1.25 µM ([2]; Well no.=8501, low concentration screen)?
A: 106%

Q: Which remaining activity at 3.75 µM ([1]; Well no.=8421, high concentration screen) does the source give for `CCOC(=O)C1=CCCC[C@H]1S(=O)(=O)Nc1ccc(F)cc1Cl` [Resatorvid] here?
A: 90.5%

Q: What about the remaining activity at 1.25 µM ([2]; Well no.=8421, low concentration screen) of the same compound?
A: 90.4%

Q: What does the source list for `COC(=O)[C@H]1[C@H]2C[C@@H]3c4[nH]c5cc(OC)ccc5c4CCN3C[C@H]2C[C@@H](OC(=O)c2cc(OC)c(OC)c(OC)c2)[C@@H]1OC` [Reserpine]?
A: remaining activity at 3.75 µM ([1]; Well no.=3833, high concentration screen): 94.7%; remaining activity at 1.25 µM ([2]; Well no.=3833, low concentration screen): 97%

Q: Which results are given for `CCOCc1nc2c(N)nc3ccccc3c2n1CC(C)(C)O` [Resiquimod]?
A: remaining activity at 3.75 µM ([1]; Well no.=5488, high concentration screen): 107%; remaining activity at 3.75 µM ([1]; Well no.=8499, high concentration screen): 106%; remaining activity at 1.25 µM ([2]; Well no.=5488, low concentration screen): 107%; remaining activity at 1.25 µM ([2]; Well no.=8499, low concentration screen): 102%

Q: For `Oc1ccc(/C=C/c2cc(O)cc(O)c2)cc1` [Resveratrol], which remaining activity at 3.75 µM ([1]; Well no.=1492, high concentration screen) is on record?
A: 95.7%

Q: And the remaining activity at 3.75 µM ([1]; Well no.=3130, high concentration screen)?
A: 102%

Q: What about the remaining activity at 3.75 µM ([1]; Well no.=3847, high concentration screen) of the same compound?
A: 101%

Q: And the remaining activity at 1.25 µM ([2]; Well no.=1492, low concentration screen)?
A: 94.9%

Q: And the remaining activity at 1.25 µM ([2]; Well no.=3130, low concentration screen)?
A: 101%

Q: And the remaining activity at 1.25 µM ([2]; Well no.=3847, low concentration screen)?
A: 103%

Q: How did the remaining activity at 3.75 µM ([1]; Well no.=708, high concentration screen) turn out when `CC1=C(/C=C/C(C)=C/C=C/C(C)=C/C(=O)Nc2ccc(O)cc2)C(C)(C)CCC1` [Retinoic acid p-hydroxyanilide] was run?
A: 94.4%

Q: And the remaining activity at 1.25 µM ([2]; Well no.=708, low concentration screen)?
A: 97.5%

Q: For `CC1=C(/C=C/C(C)=C/C=C/C(C)=C/C(=O)O)C(C)(C)CCC1` [Retinoic acid], which remaining activity at 3.75 µM ([1]; Well no.=1252, high concentration screen) is on record?
A: 98.8%

Q: And the remaining activity at 3.75 µM ([1]; Well no.=1628, high concentration screen)?
A: 99.6%

Q: What about the remaining activity at 3.75 µM ([1]; Well no.=3132, high concentration screen) of the same compound?
A: 104%

Q: And the remaining activity at 3.75 µM ([1]; Well no.=4426, high concentration screen)?
A: 101%

Q: And the remaining activity at 3.75 µM ([1]; Well no.=6163, high concentration screen)?
A: 108%

Q: What about the remaining activity at 1.25 µM ([2]; Well no.=1252, low concentration screen) of the same compound?
A: 98%

Q: And the remaining activity at 1.25 µM ([2]; Well no.=1628, low concentration screen)?
A: 95.7%

Q: What about the remaining activity at 1.25 µM ([2]; Well no.=3132, low concentration screen) of the same compound?
A: 102%

Q: And the remaining activity at 1.25 µM ([2]; Well no.=4426, low concentration screen)?
A: 101%

Q: What about the remaining activity at 1.25 µM ([2]; Well no.=6163, low concentration screen) of the same compound?
A: 106%
